From patent publication US9284297B2, “Halofuginone analogs for inhibition of tRNA synthetases and uses thereof” (President and Fellows of Harvard College, priority 2008, dated 2016)
pIC50: −log10 of the molar value.

Columns and labels:
[1] = molecular target: T1, prolyl-tRNA synthetase (EPRS) (Oryctolagus cuniculus, UniProt G1T2I4); test: Incorporation of 14C-labeled proline into tRNA in rabbit reticulocyte lysate; assay type: biochemical; conditions: crude in vitro translation system
T1 construct: from tissue; host or cells: rabbit reticulocyte lysate
T1 sequence (G1T2I4 1-1447): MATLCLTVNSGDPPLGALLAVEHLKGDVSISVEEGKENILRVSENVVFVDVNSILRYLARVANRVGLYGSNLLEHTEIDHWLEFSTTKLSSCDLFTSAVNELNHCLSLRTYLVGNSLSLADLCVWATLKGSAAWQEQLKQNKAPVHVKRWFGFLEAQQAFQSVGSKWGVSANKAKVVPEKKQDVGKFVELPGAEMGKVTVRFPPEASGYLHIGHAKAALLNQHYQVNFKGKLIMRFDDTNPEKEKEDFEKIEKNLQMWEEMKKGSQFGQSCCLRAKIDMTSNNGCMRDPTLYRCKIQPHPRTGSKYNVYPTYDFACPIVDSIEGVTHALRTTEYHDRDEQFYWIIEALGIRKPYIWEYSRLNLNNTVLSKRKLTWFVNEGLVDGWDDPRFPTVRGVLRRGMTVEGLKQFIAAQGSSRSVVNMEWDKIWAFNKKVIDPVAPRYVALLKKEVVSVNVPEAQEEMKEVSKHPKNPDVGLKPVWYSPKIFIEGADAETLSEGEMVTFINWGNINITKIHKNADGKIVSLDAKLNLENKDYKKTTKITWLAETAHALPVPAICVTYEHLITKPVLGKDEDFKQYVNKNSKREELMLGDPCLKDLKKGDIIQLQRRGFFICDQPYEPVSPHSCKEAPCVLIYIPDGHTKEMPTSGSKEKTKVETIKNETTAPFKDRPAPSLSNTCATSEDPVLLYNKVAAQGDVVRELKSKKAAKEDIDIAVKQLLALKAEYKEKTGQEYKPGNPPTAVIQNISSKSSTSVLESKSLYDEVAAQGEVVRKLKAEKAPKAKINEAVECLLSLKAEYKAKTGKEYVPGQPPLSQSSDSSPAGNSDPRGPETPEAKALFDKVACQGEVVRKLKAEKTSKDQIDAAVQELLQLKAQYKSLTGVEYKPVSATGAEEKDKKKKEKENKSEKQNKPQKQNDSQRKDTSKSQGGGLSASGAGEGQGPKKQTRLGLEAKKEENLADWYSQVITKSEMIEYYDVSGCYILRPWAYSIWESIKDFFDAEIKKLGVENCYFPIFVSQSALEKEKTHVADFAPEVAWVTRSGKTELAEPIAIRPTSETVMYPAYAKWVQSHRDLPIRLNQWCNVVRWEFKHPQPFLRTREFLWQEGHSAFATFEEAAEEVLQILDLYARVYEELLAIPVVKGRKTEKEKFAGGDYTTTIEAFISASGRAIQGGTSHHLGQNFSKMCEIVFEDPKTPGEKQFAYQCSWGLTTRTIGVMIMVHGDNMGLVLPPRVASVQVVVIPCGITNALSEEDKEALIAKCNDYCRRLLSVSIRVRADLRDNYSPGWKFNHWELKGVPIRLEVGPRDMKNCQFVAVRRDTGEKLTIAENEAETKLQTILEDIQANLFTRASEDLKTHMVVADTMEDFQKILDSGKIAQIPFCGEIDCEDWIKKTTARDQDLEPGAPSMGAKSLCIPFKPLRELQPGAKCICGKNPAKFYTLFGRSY
Protocol: Total RNA was extracted with acidic phenol-chloroform and tRNA was isolated using miRVANA microRNA isolation kit. Radioisotope incorporation into tRNA was measured in a scintillation counter.

[2] = tested on: Th17 differentiation of CD4+ CD25− T cells; conditions: read-out: 50% inhibition of IL-17 expressing cell (Th17) development; cited from earlier work
[3] = molecular target: T2, Prolyl-tRNA synthetase (EPRS) purified from rabbit liver (Oryctolagus cuniculus, UniProt G1T2I4); test: Purified EPRS, 14C-labeled proline incorporation into tRNA; assay type: biochemical; conditions: 10 μM, 4 μM, 1 μM HF
T2 construct: Prolyl-tRNA synthetase (EPRS) purified from rabbit liver; from tissue; host or cells: rabbit liver
T2 sequence (G1T2I4 1-1447): T1 sequence (G1T2I4 1-1447)
Protocol: Purified enzyme was incubated with 100 μg/ml bovine tRNA, 50 μM ^14C-labeled proline, 5 mM ATP, and 10 mM MgCl2 for 20 minutes. Charged tRNA was isolated by precipitation on Whatman filter paper and washing with cold 5% TCA. TCA precipitable counts were assayed by scintillation counting.

adjuvant-driven EAE = test: Adjuvant-driven experimental autoimmune encephalomyelitis (EAE), MOG33-55 immunization; assay type: in vivo, mice
Excerpt: The ability of systemic HF treatment to block IL-17 expression and associated autoimmune inflammation in vivo was examined using two distinct models of experimental autoimmune encephalomyelitis (EAE). […] The second model, a passive model of EAE induction, is initiated by the transfer of myelin proteolipid protein (PLP)-reactive T cells into lymphopenic hosts.
Adjuvant-driven EAE was induced in 8 week-old wild-type B6 mice purchased from Charles River laboratories (Kingston, N.Y.) by subcutaneous injection of […] peptide emulsified in Incomplete Freund's Adjuvant (IFA) plus 5 mg/ml heat-killed M. tuburculosis (BD Biosciences) in both dorsal flanks as described in Veldhoen et al. (Nat. Immunol. 7(11):1151-1156, 2006).
Mice were injected daily with HF (2 μg/mouse) or vehicle control (DMSO) i.p. Clinical signs of EAE were assessed according to the following score: 0, no signs of disease; 1, flaccid tail; 2, weak gait/hind limb paresis; 3, hind limb paralysis; 4, tetraplegia; 5, moribund. Cytokine production during EAE was determined either in peripheral T cells isolated from spleen or lymph nodes of mice prior to disease onset (day 6-10) or in mononuclear cells isolated from the brain and spinal cords of mice with severe disease (clinical score ≧2) between days 15-20. Briefly, splenocytes were stained for intracellular cytokines following erythrocyte lysis with ammonium chloride buffer. T cells were isolated from brain and spinal cords of mice with active EAE following perfusion with cold PBS. Minced CNS tissue was digested with liberase C1 (0.33 mg/ml, Roche Diagnostics) or collagenase D (10 mg/ml, Roche Diagnostics) at 37° C. for 30-45 minutes. Cell suspensions were passed through 70 μm cell strainers (VWR) and fractionated by 70%/30% Percoll gradient centrifugation. Mononuclear cells were collected from the interphase, washed, and used for intracellular cytokine analysis.

O=C(CC1NCCCC1O)Cn1cnc2cc(Br)c(Cl)cc2c1=O (stereo not shown) [Compound 1, 7-bromo-6-chloro-3-[3-(3-hydroxy-2-piperidinyl)-2-oxopropyl]-4(3H)-quinazolinone]
inhibition of 14C proline incorporation into tRNA [1]: inhibitor of prolyl-tRNA synthetase (EPRS) | pIC50 [2]: ~8.52 | inhibition of purified EPRS (TCA precipitable counts) [3]: directly inhibits purified mammalian EPRS | IL-17 and IFNγ expression in T cells of lymph nodes and CNS (adjuvant-driven EAE; 2 μg HF daily i.p.): impaired IL-17 production but did not affect IFNγ expression | EAE disease severity and frequency of onset (adjuvant-driven EAE; 2 μg HF daily, ˜0.1 mg/kg, i.p.): significantly reduced both the severity of adjuvant-driven EAE disease and frequency of disease onset | EAE, HF not introduced until day 10 following immunization (adjuvant-driven EAE; treatment from day 10): controls autoimmune inflammation even after inflammatory pathogenesis is evident | EAE, HF injection terminated at day 10 following immunization (adjuvant-driven EAE; treatment until day 10): exerts a protective effect that extends well beyond the time of treatment
